Experimental data reported in patent US8703961B2, “Thiazole derivatives for the treatment of diseases such as cancer” (Merck Patent GmbH, priority 2009, dated 2014).

Assays:
[1] = target: T1, MAP3K9 (Homo sapiens, UniProt P80192); experiment: filter binding kinase assay; format: biochemical; conditions: derived from % inhibition at 1 μM
T1 construct: purchased
Method in brief: (§1)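 Compound was pre-incubated with enzyme and substrate for 5 minutes at room temperature, then the reaction was started with ATP (added solution at 5, 20 or 50 […] depending on kinase). Orthophosphoric acid stopped it, and phosphorylated substrate captured on P81 filters was quantified by scintillation counting.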

[2] = target: T2, RPS6KA3 (Homo sapiens, UniProt P51812); experiment: filter binding kinase assay; format: biochemical; conditions: derived from % inhibition at 1 μM
T2 construct: purchased
T2 sequence (P51812 whole entry, species assumed): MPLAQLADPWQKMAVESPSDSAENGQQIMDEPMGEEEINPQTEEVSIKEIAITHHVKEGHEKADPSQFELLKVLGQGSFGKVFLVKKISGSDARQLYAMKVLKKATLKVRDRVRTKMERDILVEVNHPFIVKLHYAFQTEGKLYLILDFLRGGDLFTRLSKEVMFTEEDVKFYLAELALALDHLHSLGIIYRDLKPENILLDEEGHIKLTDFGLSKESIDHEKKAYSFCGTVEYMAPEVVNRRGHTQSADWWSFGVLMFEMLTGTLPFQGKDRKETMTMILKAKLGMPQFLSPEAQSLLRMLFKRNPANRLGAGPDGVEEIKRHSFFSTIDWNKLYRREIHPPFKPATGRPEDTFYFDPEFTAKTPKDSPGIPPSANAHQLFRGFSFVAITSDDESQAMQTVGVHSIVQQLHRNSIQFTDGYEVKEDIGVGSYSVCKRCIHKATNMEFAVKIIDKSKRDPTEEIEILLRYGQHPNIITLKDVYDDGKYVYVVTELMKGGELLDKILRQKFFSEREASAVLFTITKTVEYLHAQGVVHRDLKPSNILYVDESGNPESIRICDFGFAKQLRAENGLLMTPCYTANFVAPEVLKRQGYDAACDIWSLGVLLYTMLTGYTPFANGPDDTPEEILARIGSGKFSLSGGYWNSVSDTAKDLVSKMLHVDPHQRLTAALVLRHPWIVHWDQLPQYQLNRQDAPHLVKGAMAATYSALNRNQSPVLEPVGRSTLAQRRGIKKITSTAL
Method in brief: as §1

[3] = target: T3, SRPK1 (Homo sapiens, UniProt Q96SB4); experiment: filter binding kinase assay; format: biochemical; conditions: derived from % inhibition at 1 μM
T3 construct: purchased
T3 sequence (Q96SB4 whole entry, species assumed): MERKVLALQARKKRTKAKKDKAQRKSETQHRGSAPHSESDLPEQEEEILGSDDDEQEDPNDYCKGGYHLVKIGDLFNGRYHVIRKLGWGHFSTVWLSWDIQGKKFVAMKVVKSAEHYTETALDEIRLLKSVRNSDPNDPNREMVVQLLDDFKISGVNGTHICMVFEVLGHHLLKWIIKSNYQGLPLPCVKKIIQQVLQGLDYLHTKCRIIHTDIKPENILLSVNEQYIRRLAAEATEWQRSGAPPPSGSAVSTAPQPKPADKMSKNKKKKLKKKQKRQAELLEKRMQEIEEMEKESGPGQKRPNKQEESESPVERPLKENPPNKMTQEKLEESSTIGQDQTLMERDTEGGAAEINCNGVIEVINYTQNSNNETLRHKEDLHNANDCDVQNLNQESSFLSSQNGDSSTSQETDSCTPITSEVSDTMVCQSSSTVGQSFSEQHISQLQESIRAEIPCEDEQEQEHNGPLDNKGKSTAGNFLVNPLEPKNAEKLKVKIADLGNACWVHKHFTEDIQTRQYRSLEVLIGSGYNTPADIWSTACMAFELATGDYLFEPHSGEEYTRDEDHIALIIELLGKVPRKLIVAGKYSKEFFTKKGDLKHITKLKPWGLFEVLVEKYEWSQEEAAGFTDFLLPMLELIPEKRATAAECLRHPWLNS
Method in brief: as §1

[4] = target: T4, STK11 (Homo sapiens, UniProt Q15831); experiment: filter binding kinase assay; format: biochemical; conditions: derived from % inhibition at 1 μM
T4 construct: purchased
T4 sequence (Q15831 1-433): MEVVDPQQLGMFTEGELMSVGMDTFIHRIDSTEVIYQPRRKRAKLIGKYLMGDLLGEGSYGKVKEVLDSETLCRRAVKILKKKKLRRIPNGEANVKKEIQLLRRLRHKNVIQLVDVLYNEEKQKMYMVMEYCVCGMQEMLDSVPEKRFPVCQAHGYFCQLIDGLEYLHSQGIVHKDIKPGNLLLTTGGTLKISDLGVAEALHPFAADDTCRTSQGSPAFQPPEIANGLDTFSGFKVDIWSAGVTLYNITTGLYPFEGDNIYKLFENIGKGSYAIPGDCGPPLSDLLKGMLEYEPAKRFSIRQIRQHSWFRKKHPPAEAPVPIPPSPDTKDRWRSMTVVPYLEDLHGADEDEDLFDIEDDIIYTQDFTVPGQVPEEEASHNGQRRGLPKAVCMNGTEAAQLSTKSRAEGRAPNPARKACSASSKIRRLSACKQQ
T4 sequence (Q7RTN6 1-431 partner): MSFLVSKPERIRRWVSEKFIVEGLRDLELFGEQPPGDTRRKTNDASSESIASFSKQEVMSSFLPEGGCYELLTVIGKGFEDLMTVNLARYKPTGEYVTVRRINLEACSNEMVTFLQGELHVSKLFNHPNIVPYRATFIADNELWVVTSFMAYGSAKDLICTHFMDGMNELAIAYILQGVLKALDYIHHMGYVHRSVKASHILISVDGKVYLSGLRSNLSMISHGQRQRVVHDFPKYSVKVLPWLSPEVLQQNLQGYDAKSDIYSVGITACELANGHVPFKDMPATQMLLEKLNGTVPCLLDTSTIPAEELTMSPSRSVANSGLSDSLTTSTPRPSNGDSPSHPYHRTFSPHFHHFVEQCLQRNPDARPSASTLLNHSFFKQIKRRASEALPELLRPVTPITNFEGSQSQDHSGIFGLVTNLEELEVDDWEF
T4 sequence (Q9Y376 1-341 partner): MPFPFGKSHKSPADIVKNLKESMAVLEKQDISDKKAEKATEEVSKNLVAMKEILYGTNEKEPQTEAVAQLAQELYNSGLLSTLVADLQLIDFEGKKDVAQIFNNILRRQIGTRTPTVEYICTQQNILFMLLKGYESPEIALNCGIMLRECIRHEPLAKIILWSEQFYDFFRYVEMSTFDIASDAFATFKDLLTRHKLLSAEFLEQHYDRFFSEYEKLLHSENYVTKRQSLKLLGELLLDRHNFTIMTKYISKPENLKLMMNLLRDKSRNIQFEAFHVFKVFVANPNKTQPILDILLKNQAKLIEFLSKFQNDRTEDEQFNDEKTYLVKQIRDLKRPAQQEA
Method in brief: as §1

[5] = target: T5, MKNK2 (Homo sapiens, UniProt Q9HBH9); experiment: filter binding kinase assay; format: biochemical; conditions: derived from % inhibition at 1 μM
T5 construct: purchased
T5 sequence (Q9HBH9 whole entry, species assumed): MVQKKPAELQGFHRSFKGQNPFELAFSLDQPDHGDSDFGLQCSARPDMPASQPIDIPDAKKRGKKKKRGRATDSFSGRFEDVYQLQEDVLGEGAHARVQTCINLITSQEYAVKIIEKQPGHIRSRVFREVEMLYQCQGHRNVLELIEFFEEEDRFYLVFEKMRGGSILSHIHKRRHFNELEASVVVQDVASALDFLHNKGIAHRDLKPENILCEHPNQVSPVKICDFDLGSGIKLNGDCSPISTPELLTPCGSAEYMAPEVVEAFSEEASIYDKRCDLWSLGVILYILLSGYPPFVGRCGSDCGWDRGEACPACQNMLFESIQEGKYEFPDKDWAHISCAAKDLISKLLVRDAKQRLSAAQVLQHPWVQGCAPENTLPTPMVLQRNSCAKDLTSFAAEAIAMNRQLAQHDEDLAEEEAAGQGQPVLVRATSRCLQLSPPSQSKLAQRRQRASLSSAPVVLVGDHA
Method in brief: as §1

[6] = target: T6, DYRK1A (Homo sapiens, UniProt Q13627); experiment: filter binding kinase assay; format: biochemical; conditions: derived from % inhibition at 1 μM
T6 construct: purchased
Method in brief: as §1

[7] = target: T7, PRKAA1 (Homo sapiens, UniProt Q13131); experiment: filter binding kinase assay; format: biochemical; conditions: derived from % inhibition at 1 μM
T7 construct: purchased
Method in brief: as §1

[8] = target: T8, PRKCZ (Homo sapiens, UniProt Q05513); experiment: filter binding kinase assay; format: biochemical; conditions: derived from % inhibition at 1 μM
T8 construct: purchased
T8 sequence (Q05513 1-592): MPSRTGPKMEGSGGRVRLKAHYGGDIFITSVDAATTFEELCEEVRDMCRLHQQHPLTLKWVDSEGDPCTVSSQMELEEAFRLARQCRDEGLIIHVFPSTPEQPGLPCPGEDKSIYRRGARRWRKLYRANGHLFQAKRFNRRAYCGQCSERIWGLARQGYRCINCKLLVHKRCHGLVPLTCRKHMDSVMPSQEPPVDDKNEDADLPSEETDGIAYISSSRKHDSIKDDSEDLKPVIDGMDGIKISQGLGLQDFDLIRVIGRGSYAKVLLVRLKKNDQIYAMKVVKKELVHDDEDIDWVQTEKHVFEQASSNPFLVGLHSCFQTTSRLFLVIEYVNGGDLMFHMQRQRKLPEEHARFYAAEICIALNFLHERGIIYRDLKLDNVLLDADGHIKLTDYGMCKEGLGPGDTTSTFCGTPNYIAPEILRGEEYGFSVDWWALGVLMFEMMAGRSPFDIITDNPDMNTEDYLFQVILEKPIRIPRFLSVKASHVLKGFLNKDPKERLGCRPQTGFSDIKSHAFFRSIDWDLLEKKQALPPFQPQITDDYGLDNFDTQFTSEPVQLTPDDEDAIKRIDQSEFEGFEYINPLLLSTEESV
Method in brief: as §1

[9] = target: T9, INSR (Homo sapiens, UniProt P06213); experiment: filter binding kinase assay; format: biochemical; conditions: derived from % inhibition at 1 μM
T9 construct: purchased
Method in brief: as §1

[10] = target: T10, ERBB4 (Homo sapiens, UniProt Q15303); experiment: filter binding kinase assay; format: biochemical; conditions: derived from % inhibition at 1 μM
T10 construct: purchased
T10 sequence (Q15303 26-1308, species assumed): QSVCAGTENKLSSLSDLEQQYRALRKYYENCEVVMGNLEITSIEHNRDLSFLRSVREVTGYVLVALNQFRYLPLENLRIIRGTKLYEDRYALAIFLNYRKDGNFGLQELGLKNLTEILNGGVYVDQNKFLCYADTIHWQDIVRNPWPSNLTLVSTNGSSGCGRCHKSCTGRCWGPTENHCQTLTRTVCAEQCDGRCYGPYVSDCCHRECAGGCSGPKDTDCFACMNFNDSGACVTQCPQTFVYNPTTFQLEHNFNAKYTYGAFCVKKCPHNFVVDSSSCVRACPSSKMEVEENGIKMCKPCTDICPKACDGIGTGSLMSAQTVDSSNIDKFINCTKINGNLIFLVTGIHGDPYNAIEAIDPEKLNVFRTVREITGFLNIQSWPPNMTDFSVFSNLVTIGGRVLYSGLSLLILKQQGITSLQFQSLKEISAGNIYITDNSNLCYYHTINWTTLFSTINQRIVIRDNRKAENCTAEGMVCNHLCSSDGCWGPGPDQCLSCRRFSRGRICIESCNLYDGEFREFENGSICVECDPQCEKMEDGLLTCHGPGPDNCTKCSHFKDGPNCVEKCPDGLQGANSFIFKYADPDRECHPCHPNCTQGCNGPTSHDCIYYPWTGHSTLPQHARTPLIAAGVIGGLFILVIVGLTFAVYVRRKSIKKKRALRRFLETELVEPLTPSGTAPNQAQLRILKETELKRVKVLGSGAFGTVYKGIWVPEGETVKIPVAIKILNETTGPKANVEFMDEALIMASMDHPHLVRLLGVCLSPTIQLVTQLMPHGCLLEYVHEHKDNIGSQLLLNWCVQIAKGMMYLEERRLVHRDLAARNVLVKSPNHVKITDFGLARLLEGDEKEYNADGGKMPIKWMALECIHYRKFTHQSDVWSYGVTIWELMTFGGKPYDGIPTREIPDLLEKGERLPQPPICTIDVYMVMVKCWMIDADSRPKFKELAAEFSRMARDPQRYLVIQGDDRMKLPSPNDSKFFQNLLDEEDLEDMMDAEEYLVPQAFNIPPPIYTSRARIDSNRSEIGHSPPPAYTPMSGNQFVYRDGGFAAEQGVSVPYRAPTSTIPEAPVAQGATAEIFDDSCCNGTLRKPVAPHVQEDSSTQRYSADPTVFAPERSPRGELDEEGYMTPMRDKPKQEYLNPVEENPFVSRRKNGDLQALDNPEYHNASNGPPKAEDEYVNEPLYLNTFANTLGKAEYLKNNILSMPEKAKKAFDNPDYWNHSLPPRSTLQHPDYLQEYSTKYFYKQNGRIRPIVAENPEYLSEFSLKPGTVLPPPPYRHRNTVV
Method in brief: as §1

[11] = target: T11, PAK2 (Homo sapiens, UniProt Q13177); experiment: filter binding kinase assay; format: biochemical; conditions: derived from % inhibition at 1 μM
T11 construct: purchased
Method in brief: as §1

[12] = target: T12, MAPK8 (Homo sapiens, UniProt P45983); experiment: filter binding kinase assay; format: biochemical; design: purchased; conditions: derived from % inhibition at 1 μM; first MAPK8 line
Procedure: (§2) All kinase assays were carried out using the Multidrop 384 from Thermo-Fisher at room temperature in a total assay volume of 25.5 μl. 15 μl of an enzyme mix comprising enzyme and substrate in buffer are added to the test batch comprising either 0.5 μl of test substance, DMSO control or empty container. Test substances are pre-incubated in the presence of the enzyme and substrate for 5 minutes before the reaction is initiated by addition of 10 μl of ATP (concentration kinase-dependent of […]). The reaction is terminated by addition of 5 μl of orthophosphoric acid (50 mM). The test containers are then transferred onto P81 Unifilter plates by means of a “Packard Harvester” and dried in air. The dry Unifilter plates are sealed after the addition of MicroScint O, and the radioactivity is determined in a Packard Topcount NXT.
Target sequence in this assay (P45983 whole entry, species assumed): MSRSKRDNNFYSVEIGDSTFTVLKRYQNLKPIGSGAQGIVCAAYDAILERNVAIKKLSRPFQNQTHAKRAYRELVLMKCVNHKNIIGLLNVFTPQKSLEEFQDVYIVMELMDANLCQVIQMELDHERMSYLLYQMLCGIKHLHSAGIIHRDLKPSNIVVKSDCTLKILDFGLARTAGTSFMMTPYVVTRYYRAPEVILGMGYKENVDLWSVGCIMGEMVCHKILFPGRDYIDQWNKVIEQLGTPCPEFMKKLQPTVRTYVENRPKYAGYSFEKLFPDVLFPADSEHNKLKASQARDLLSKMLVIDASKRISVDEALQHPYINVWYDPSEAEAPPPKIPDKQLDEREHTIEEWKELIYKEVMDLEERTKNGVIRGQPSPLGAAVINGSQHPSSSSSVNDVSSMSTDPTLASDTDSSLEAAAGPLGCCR

[13] = target: T12, MAPK8; experiment: filter binding kinase assay (second MAPK8 line); format: biochemical; conditions: read-out: residual kinase activity MAPK8
Procedure: as §2
Target sequence in this assay (P45983 whole entry): as the sequence (P45983 whole entry, species assumed) above

T1 sequence (P80192 whole entry, species assumed): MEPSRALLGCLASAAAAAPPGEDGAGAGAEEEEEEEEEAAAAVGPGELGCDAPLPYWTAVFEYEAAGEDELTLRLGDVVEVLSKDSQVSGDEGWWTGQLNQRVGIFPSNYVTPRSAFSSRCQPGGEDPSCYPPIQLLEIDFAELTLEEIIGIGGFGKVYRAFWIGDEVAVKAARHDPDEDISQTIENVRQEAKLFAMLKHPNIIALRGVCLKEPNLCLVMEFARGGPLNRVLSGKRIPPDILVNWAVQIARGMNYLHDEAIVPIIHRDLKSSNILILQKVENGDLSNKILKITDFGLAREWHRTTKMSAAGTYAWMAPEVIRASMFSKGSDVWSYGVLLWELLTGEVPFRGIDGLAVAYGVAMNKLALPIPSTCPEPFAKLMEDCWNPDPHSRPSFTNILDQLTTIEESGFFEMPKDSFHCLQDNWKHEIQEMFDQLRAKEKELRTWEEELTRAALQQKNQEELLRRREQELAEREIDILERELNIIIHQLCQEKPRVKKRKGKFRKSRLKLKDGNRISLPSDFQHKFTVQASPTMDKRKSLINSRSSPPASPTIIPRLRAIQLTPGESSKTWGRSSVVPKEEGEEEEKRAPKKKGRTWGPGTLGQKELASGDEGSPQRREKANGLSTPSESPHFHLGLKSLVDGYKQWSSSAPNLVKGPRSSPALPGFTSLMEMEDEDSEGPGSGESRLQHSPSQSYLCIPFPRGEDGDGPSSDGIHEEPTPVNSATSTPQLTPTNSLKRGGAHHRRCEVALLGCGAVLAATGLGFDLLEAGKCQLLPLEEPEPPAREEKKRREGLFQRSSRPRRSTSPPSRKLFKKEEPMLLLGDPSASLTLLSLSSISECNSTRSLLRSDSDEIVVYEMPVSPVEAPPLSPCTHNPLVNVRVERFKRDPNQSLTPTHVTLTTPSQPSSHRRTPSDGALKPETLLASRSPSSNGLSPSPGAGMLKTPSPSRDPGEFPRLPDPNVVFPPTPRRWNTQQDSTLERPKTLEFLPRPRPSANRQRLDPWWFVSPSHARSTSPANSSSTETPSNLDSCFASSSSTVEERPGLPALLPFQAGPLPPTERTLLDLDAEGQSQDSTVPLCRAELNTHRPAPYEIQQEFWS

SMILES | IC50 [1] [µM] | IC50 [2] [µM] | IC50 [3] [µM] | IC50 [4] [µM] | IC50 [5] [µM] | IC50 [6] [µM] | IC50 [7] [µM] | IC50 [8] [µM] | IC50 [9] [µM] | IC50 [10] [µM] | IC50 [11] [µM] | IC50 [12] [µM] | melting point [°C] | remaining activity at 1 µM [13] [%]
c1ccc(Cc2c[nH]c3ncsc23)cc1 [Compound A7, 6-benzyl-4H-pyrrolo[2,3-d]thiazole] | 1 to 10 | 1 to 10 | 10 to 100 | 10 to 100 | > 1 | > 1 | 10 to 100 | > 1 | > 1 | 10 to 100 | 1 to 10 | 1 to 10 | 133 to 135 | –
Nc1ncsc1C#Cc1cnc2[nH]ccc2c1 [Compound A22, 5-(1H-pyrrolo[2,3-b]pyridin-5-ylethynyl)thiazol-4-ylamine] | 1 to 10 | 10 to 100 | > 1 | > 1 | > 1 | > 1 | 10 to 100 | > 1 | 10 to 100 | > 1 | > 1 | – | – | 34
CC(C)(C)OC(=O)Nc1nc(-c2ccncc2)sc1C#CCN1CCOCC1 [Compound A25, tert-butyl[5-(3-morpholin-4-ylprop-1-ynyl)-2-pyridin-4-ylthiazol-4-yl]-carbamate] | > 1 | > 1 | > 1 | > 1 | > 1 | > 1 | 10 to 100 | 10 to 100 | > 1 | > 1 | > 1 | > 1 | – | –
CC(C)(C)OC(=O)Nc1ncsc1C#CCN1C(=O)c2ccccc2C1=O [Compound A26, tert-butyl{5-[3-(1,3-dioxo-1,3-dihydroisoindol-2-yl)prop-1-ynyl]-thiazol-4-yl}carbamate] | 1 to 10 | > 1 | > 1 | 10 to 100 | 10 to 100 | 10 to 100 | 10 to 100 | 10 to 100 | 1 to 10 | > 1 | > 1 | 10 to 100 | – | –
Nc1ncsc1C#Cc1cccc(O)c1 [Compound A27, 3-(4-aminothiazol-5-ylethynyl)phenol] | 1 to 10 | 1 to 10 | 1 to 10 | > 1 | > 1 | 10 to 100 | 1 to 10 | > 1 | 10 to 100 | 1 to 10 | > 1 | 1 to 10 | – | –
